Assay results published in patent publication US20160025704A1, “METHODS FOR IDENTIFYING NEUROPROTECTIVE PKC ACTIVATORS” (priority 2013, published 2016).

Legend:
[1] = system: Primary human neurons; assay: Synaptogenicity in primary human neurons; format: cell-based; settings: 100 nM
Experimental: Protocol: Primary human neurons were treated with either DCPLA-methyl ester (100 nM) or bryostatin-1 (0.27 nM).

[2] = system: BDNF, NGF, NT-3, and GAP-43 mRNA; assay: NTF mRNA expression in primary hippocampal neurons treated with Aβ (real time PCR); format: cell-based, rat; settings: 100 nM; 1 μM Aβ; co-treated 24 hours or treated 12 hours after Aβ
Experimental: Protocol: Primary hippocampal neurons were treated with control buffer (Untreated), Aβ (1 μM, oligomeric form), or 0.5 nM bryostatin for 24 hours. Some cells were co-treated with Aβ plus 0.5 nM bryostatin (Bryo+Aβ) for 24 hours, or pre-treated with Aβ for 12 hours, washed out, and then treated with bryostatin for additional 12 hours (Aβ+Bryo). Cells were then lysed and total RNA was isolated. Relative expression change of BDNF, NGF, NT-3, and GAP-43 mRNA was quantitatively measured from real time PCR using specific primers against rat BDNF, NGF, NT-3, and GAP-43 mRNA (FIG. 14). A representative gel image is also shown below in FIG. 14 (Mean+SEM, *P<0.05, Aβ compared with untreated; #P<0.05, Bryo+Aβ or Aβ+Bryo compared with Aβ only).
Test A—DCPLA (500 nM): Primary hippocampal neurons were treated with control buffer (Untreated), Aβ (1 μM, oligomer), or 500 nM DCPLA for 24 hours. Some cells were pre-treated with Aβ for 12 hr and then treated with 500 nM DCPLA for 12 hours (Aβ+DCP-LA), or co-treated with Aβ plus 500 nM DCP-LA (DCP-LA+Aβ) for 24 hours. Total RNA was isolated and relative expression change of BDNF, NGF, NT-3, and GAP-43 mRNA was quantitatively measured from real time RT-PCR using specific primers against rat BDNF, NGF, NT-3, and GAP-43 mRNA (FIG. 15). A representative gel image is also shown below in FIG. 15 (Mean+SEM of three independent experiments, *P<0.05, Aβ compared with untreated; #P<0.05, Aβ+Bryo or Bryo+Aβ compared with Aβ only).
Test B—DCPLA-methyl ester (100 nM): Primary hippocampal neurons were treated with control buffer (Untreated), 1 μM Aβ, or 100 nM DCP-LA ME (the methyl ester form of DCP-LA) for 24 hours. Some cells were pre-treated with Aβ for 12 hr and then treated with 100 nM DCP-LA ME for 12 hours (Aβ+DCP-LA ME), or co-treated with Aβ plus […] (DCP-LA ME+Aβ) for 24 hours. Total RNA was isolated and relative expression change of BDNF, NGF, NT-3, and GAP-43 mRNA was quantitatively measured from real time RT-PCR using specific primers against rat BDNF, NGF, NT-3, and GAP-43 mRNA (FIG. 16). […]

[3] = system: HCN-2 cells; assay: Synaptogenesis in HCN-2 cells; format: cell-based, human; settings: 10 days
Experimental: FIG. 9 illustrates that activation of PKC-ε induces synaptogenesis in HCN-2 cells. The HCN-2 cell line was derived from cortical tissue removed from a patient undergoing hemispherectomy for intractable seizures associated with Rasmussen's encephalitis. The cells were treated with either DCPLA-methyl ester or bryostatin-1 for 10 days. […] Thus, PKC-ε activation can induce synaptogenesis in both embryonic and adult neuronal cells.

[4] = system: neurons in the CA1 hippocampal area; assay: Apoptotic cell death (TUNEL) in hippocampal CA1 area after ischemic (2-VO)/hypoxic event; format: in vivo; settings: FIG. 11 legend; dose not given
Experimental: Protocol: Bryostatin-1 (15 μg/m^2) was administered through a tail vein (2 doses/week, for 10 doses), starting 24 hours after the end of the ischemic (2-VO)/hypoxic event. Staining for apoptotic cell death in the hippocampal CA1 area was performed 9 day after the last bryostatin-1 dose. […] (C) Quantification of TUNEL staining in stratum radiatum (n=3 animals; n=30 confocal images). Con=control; Bry=bryostatin-1; Isch=cerebral ischemia; ***, P<0.001.

[5] = system: Human primary neurons; assay: ASPD-induced apoptosis in human primary neurons (Annexin-V Fluorescein); format: cell-based; settings: 100 nM with 100 nM ASPD, 24 hours
Experimental: Protocol: Human primary neurons were grown on chambered slides and treated with vehicle (Control), 100 nM ASPD, ASPD+DCPLA-ME (100 nM), ASPD+bryostatin 1 (0.27 nM) and ASPD+DCPLA-ME (100 nM) or ASPD+bryostatin 1 (0.27 nM) in presence of PKC-ε inhibitor. Following 24 hours of incubation, cells were stained using Annexin-V Fluorescein to detect apoptotic cells and results are shown in FIG. 10 below. […] Data are mean±SEM of three independent experiments. (*p<0.05;** p<0.005 and *** p<0.0005).

[6] = molecular target: T1, PKC-ε (Homo sapiens, UniProt Q02156); assay: Activation of purified PKC isozymes; format: biochemical; settings: purified PKC isozymes (9 ng), preincubated 5 minutes at room temperature
T1 sequence (Q02156 1-737): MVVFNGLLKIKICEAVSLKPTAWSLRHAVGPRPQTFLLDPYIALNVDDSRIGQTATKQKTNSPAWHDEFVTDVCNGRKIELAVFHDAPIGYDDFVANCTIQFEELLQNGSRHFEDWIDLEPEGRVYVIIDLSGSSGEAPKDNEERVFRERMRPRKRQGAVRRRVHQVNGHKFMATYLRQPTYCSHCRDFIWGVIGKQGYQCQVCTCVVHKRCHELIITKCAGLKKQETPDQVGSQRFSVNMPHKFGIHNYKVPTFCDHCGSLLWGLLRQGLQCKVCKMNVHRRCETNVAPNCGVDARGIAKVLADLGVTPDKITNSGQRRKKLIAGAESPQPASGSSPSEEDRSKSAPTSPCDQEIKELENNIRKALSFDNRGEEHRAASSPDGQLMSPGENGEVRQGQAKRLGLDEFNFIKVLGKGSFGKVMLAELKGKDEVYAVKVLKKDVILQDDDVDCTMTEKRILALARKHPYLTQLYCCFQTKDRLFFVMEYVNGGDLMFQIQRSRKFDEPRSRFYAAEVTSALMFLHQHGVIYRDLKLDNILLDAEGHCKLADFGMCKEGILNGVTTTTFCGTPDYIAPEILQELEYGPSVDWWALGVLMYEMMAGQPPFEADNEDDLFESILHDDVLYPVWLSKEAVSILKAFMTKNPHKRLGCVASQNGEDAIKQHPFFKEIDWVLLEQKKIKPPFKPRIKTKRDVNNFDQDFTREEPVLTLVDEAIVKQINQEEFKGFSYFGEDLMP
Experimental: Protocol: Purified PKC-α, βII, γ, δ, or ε (9 ng) was preincubated for 5 minutes at room temperature with the following PKC activators: (A) DHA-CP6, (B) EPA-CP5, (C) AA-CP4, (D) DCP-LA, (E) “other cyclopropaneated and epoxidized fatty acids, alcohols, and methyl esters.” followed by measurement of PKC activity as described under Experimental Procedures. Results are shown below in FIG. 6.

[7] = system: ECE; assay: ECE activity in SH-SY5Y cells (fluorometric); format: cell-based; settings: 1 μM, compared to ethanol alone
Experimental: (§1) Aβ can be degraded in vivo by a number of enzymes, including insulin degrading enzyme (insulysin), neprilysin, and ECE (FIG. 12). Because PKC-ε overexpression has been reported to activate ECE (Choi et al., Proc. Natl. Acad. Sci. USA. 2006; 103: 8215-20), the effect of PKC activators on ECE was analyzed. Candidate PKC activators were added to either SH-SY5Y cells (Bryo—0.27 nM, DCP-LA—1 μM, and DHA-CP6 1 μM) or cultured neurons (DHA-CP6—1 μM, EPA-CP5— 1 μM, and AA-CP4— 1 μM), and grown on either 12- or 24-well plates. After various time periods, the cells were collected and ECE activity was measured fluorometrically. Results are shown below in FIG. 13. *, p<0.05; **, p<0.001.
PKCε overexpression has been reported to activate endothelin converting enzyme (ECE). The effect of PKC activators on ECE was measured here with Bryostatin, DCP-LA, and DHA-CP6. […] Protocol: Bryostatin (0.27 nM), DCP-LA (1 μM), DHACP6 (1 μM), EPA-CP5 (1 μM), AA-CP4 (1 μM), or ethanol alone were added to SH-SYSY cells growing on 12- or 24-well plates. After various periods of time, the cells were collected and ECE activity was measured fluorometrically as showing in FIG. 34 below (* p<0.05, ** p<0.001).

[8] = system: ECE; assay: ECE activity in cultured neurons (fluorometric); format: cell-based; settings: 1 μM, compared to ethanol alone
Experimental: as §1

[9] = system: TA 100 cells & TA 1535 cells / TA 98 cells; assay: AMES testing, overall result (mutagenic potential); format: cell-based
From the text: (§2) The AMES test is a rapid screening of the mutagenic potential of chemical compounds. […] Between 50% and 70% of all known carcinogens test positive in the AMES test.

[10] = system: healthy brown Norway rats; assay: Learning, memory and mushroom spine synapses in healthy rats, water maze training; format: in vivo; settings: PKCα inhibitor given with bryostatin and water maze training
From the text: Protocol: Non-disease, healthy brown Norway rats (at 4-5 months old) were used in this study. […] (Nv=naîve controls; Sw=swim controls; Mz=water maze treatment; and Mz/Br=water maze treatment plus bryostatin treatment).

[11] = system: sAPP-α; assay: sAPP-α secretion in an Alzheimer's disease cell line; format: cell-based, human; settings: 100 nM pretreatment, bryostatin 0.1 nM
Experimental: Protocol: An Alzheimer's disease cell line was incubated with bryostatin (0.1 nM), Benzolactam (0.1 nM or 1.0 μM), DMSO, pre-treated with staurosporin (100 nM) plus bryostatin (0.1 nM) for three hours. […] The graph units are relative to the vehicle, DMSO, alone (1).

[12] = system: TA 1535 Cells; assay: AMES test, TA1535 cells; format: cell-based; settings: plate count
From the text: as §2

[13] = Internal toxicity study: Clinical Chemistry Panel & Hematology Panel; format: in vivo; settings: in vivo
Experimental: Internal tests measuring various biological markers were performed 24 hours after administering a PKC activator (bryostatin, cyclopropanated arachidonic acid, DCPLA, and DHACP6) at 10× the therapeutic dose. The results are shown below in Tables 5-7.

CCCCCC1CC1CC1CC1CCCCCCCC(=O)OC (stereo not drawn) [DCPLA-methyl ester]
co-localized staining of PSD-95 and synaptophysin in puncta (number of synapses) ([1]; 30 days): an increase in co-localized staining of PSD-95 and synaptophysin in puncta
survival, neuritic branching and connections ([1]; 40 days): improved survival with increased neuritic branching and connections
NTF mRNA expression decreased by Aβ [2]: recovers NTF mRNA expression decreased by Aβ
differentiation, neuronal branching and punctate colocalization of PSD-95 and synaptophysin [3]: significant differentiation with neuronal branching and increased punctate colocalization of PSD-95 and synaptophysin
apoptotic cell death in neurons in the CA1 hippocampal area [4]: prevents apoptotic cell death
protection against ASPD-induced apoptosis [5]: protected against ASPD-induced apoptosis
PKC-ε specificity versus PKC-α and PKC-δ [6]: PKC-ε specificity ±15% PKC-α and PKC-δ

CCC1CC1CC1CC1CC1CC1CC1CC1CC1CC1CC1CC1CCC(=O)OC (stereo not drawn) [DHA-CP6-methyl ester]
PKC-ε specificity versus PKC-α and PKC-δ [6]: PKC-ε specificity ±15% PKC-α and PKC-δ

CCC1CC1CC1CC1CC1CC1CC1CC1CC1CC1CC1CC1CCC(=O)O (stereo not drawn) [DHA-CP6]
ECE activity [7]: sustained increase in ECE activity
ECE activity [8]: increase in ECE activity
AMES testing result [9]: not mutagenic
Result (Mutagenic Potential) [9]: Result: Not mutagenic, p > 0.05

CCC1CC1CC1CC1CC1CC1CC1CC1CC1CC1CCCC(=O)O (stereo not drawn) [EPA-CP5]
ECE activity [8]: increase in ECE activity

Cn1cc(C2=C(c3cn(CCCSC(=N)N)c4ccccc34)C(=O)NC2=O)c2ccccc21 [Ro 31-8220]
effect on bryostatin-promoted induction of mushroom spine synapses [10]: inhibited

CN[C@@H]1C[C@H]2O[C@@](C)([C@@H]1OC)n1c3ccccc3c3c4c(c5c6ccccc6n2c5c31)C(=O)NC4 [staurosporin]
effect of pretreatment on bryostatin-enhanced sAPP-α secretion [11]: completely abolished the effect of bryostatin

cyclopropanated arachidonic acid
Negative ([12]; 0.05 mM, TA 1535 Cells): 93
Positive ([12]; 0.05 mM, TA 1535 Cells): 3
Negative ([12]; 0.125 mM, TA1535 Cells): 95
Positive ([12]; 0.125 mM, TA1535 Cells): 1
Negative ([12]; 0.5 mM, TA1535 Cells): 94
Positive ([12]; 0.5 mM, TA1535 Cells): 2
Negative ([12]; 1 mM, TA1535 Cells): 93
Positive ([12]; 1 mM, TA1535 Cells): 3
AMES testing result [9]: not mutagenic
Result (Mutagenic Potential) [9]: Result: Not mutagenic, p > 0.05
ALB (Albumin) [13]: 97.0 ± 2.6
ALP (Alkaline phosphatase) [13]: 93.8 ± 6.6
ALT (Alanine aminotransferase) [13]: 92.7 ± 5.4
AST (Aspartate aminotransferase) [13]: 107.0 ± 10.3
BA (Basophils) [13]: 400.0 ± 200.0
BUN (Blood urea nitrogen) [13]: 92.0 ± 6.7
CA (Calcium) [13]: 101.0 ± 3.0
CO2-LC (Bicarbonate) [13]: 100.0 ± 5.4
CREAT (Creatinine) [13]: 92.9 ± 5.2
EO (Eosinophils) [13]: 500.0 ± 250.0
GLU (Glucose) [13]: 84.8 ± 2.4
HCT (Hematocrit) [13]: 93.3 ± 2.3
Hb (Hemoglobin) [13]: 91.7 ± 6.0
K (Potassium) [13]: 82.9 ± 3.6
LY (Lymphocytes) [13]: 124.1 ± 34.4
MCH (Mean corpuscular hemoglobin) [13]: 103.0 ± 10.7
MCV (Mean corpuscular volume) [13]: 105.0 ± 2.0
MO (Monocytes) [13]: 66.6 ± 33.3
MPV (Mean platelet volume) [13]: 82.7 ± 3.7
NA (Sodium) [13]: 99.3 ± 0.6
NE (Neutrophils) [13]: 148.3 ± 51.7
PLT (Platelet count) [13]: 164.5 ± 3.7
RBC (Red Blood Cells) [13]: 89.2 ± 3.0
TBILI (Total bilirubin) [13]: 78.2 ± 6.5
TPROT (Total protein) [13]: 91.3 ± 1.4
WBC (White blood count) [13]: 136.0 ± 42.6
